Reference: patent US20120083471A1, “Novel Compounds, Pharmaceutical Compositions Containing Same, Methods of Use for Same, and Methods for Preparing Same” (priority 2008, published 2012)
Like-named read-outs stand apart in the source and are kept apart here.

Tests used:
[1] = test system: FAO; experiment: FAO (SC 150 and Max) entries of the compound data sheets
[2] = target: T1, mtGPAT1 (Mus musculus, UniProt Q61586); experiment: In vitro mtGPAT inhibition: acylation of 14C-glycerol 3-phosphate with palmitoyl-CoA, scintillation counting; assay type: biochemical
T1 construct: from tissue; host or cells: mitochondrial preparation
T1 sequence (Q61586 1-827): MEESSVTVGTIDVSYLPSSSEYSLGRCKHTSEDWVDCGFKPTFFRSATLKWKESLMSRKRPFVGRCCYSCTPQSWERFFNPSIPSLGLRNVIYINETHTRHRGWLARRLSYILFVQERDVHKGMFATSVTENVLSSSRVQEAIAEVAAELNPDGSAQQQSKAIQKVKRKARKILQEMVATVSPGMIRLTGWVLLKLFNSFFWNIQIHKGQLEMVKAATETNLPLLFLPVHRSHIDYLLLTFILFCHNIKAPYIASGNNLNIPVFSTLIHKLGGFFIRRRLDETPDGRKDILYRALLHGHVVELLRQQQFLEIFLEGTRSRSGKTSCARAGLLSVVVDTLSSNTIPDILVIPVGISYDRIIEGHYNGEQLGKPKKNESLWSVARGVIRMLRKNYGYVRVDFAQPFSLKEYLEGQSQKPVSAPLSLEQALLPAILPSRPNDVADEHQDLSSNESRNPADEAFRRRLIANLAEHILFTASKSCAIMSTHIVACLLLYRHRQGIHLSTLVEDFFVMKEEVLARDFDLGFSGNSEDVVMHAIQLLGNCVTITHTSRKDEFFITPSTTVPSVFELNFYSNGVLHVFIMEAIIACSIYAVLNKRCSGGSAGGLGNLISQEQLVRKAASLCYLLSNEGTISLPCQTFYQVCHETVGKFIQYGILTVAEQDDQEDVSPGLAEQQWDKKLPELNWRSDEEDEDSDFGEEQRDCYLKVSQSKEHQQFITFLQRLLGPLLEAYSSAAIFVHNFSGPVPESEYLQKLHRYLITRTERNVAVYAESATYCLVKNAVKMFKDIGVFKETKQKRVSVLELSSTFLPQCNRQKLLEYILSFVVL
Experimental: The compounds produced as described above were evaluated for their ability to inhibit the acylation of glycerol-3-phosphate in vitro. The acylation reaction between ^14C-labelled glycerol-3-phosphate and palmitoyl-CoA, initiated by adding mtGPAT, was measured in the presence of varying concentrations of the inhibitor by scintillation counting as described in more detail below.
A mitochondrial preparation of glycerol 3-phosphate acyltransferase was added to the incubation mixture containing ^14C-labeled glycerol 3-phosphate, palmitoyl-CoA, and varying inhibitor concentrations to initiate the reaction. After ten min, the reaction was terminated by adding chloroform, methanol, and 1% perchloric acid. Five minutes later, more chloroform and perchloric acid were added, and the upper aqueous layer was removed. After washing three times with 1% perchloric acid, the organic layer was evaporated under nitrogen, and the amount of ^14C present was counted to determine the extent of reaction inhibition. Data points were recorded in triplicate, and IC50 values were calculated based on the amount of test inhibitor necessary to produce 50% of mtGPAT activity observed in the absence of inhibitor but in the presence of DMSO vehicle control.

[3] = compounds 4a-t and 7a-t, read-out: GPAT IC50
[4] = Table 1, sulfonamides 5a-f and 13a-f, triplicate, read-out: IC50 (μM) ± SD, In Vitro Anti-mtGPAT1 Activity
[5] = Table 2, sulfonamides 15a-i and 17a-f, triplicate, read-out: IC50 (μM) ± SD, In Vitro Anti-mtGPAT1 Activity
[6] = Table 3, sulfonamides 21a-c and 24a-f, triplicate, read-out: IC50 (μM) ± SD, In Vitro Anti-mtGPAT1 Activity

Compound | IC50 [2, 3] | melting point | IC50 [2, 4] | FAO SC 150 [1] | further results
CCCCCCCCS(=O)(=O)Nc1cc(-c2ccc(C#N)cc2)ccc1C(=O)O | 20 µM | – | – | FAS (IC50) Not Tested CPT I Stim Not Tested FAO SC 150 Neg SA/MH (MIC) ug/ml | –
CCCCCCCCS(=O)(=O)Nc1cc(-c2cccc(C(C)=O)c2)ccc1C(=O)O | 29.2 µM | – | – | FAS (IC50) Not Tested CPT I Stim Not Tested FAO SC 150 Neg SA/MH (MIC) ug/ml | –
CCCCCCCCS(=O)(=O)Nc1ccc(-c2ccc(C#N)cc2)cc1C(=O)O | 24.6 µM | – | – | FAS (IC50) Not Tested CPT I Stim Not Tested FAO SC 150 Neg SA/MH (MIC) ug/ml | –
CCCCCCCCS(=O)(=O)Nc1ccc(-c2ccc(Cl)cc2Cl)cc1C(=O)O | 17.2 µM | – | – | FAS (IC50) Not Tested CPT I Stim Not Tested FAO SC 150 Neg SA/MH (MIC) ug/ml | –
CCCCCCCCS(=O)(=O)Nc1ccc(-c2cccc(F)c2)cc1C(=O)O | 52 µM | – | – | FAS (IC50) Not Tested CPT I Stim Not Tested FAO SC 150 Neg SA/MH (MIC) ug/ml | –
CCCCCS(=O)(=O)NCc1ccc(C(=O)O)cc1 [Compound 5a, 4-(Pentylsulfonamidomethyl)benzoic acid] | – | 188 to 189 °C | 72 ± 1.7 µM | – | –
CCCCCCCCCS(=O)(=O)NCc1ccc(C(=O)O)cc1 [Compound 5b, 4-(Nonylsulfonamidomethyl)benzoic acid] | – | 178 to 180 °C | 43.9 µM | – | –
CCCCCS(=O)(=O)NCc1cccc(C(=O)O)c1 [Compound 5c, 3-(Pentylsulfonamidomethyl)benzoic acid] | – | 160 to 161 °C | 88.5 ± 1.7 µM | – | –
CCCCCCCCCS(=O)(=O)NCc1cccc(C(=O)O)c1 [Compound 5d, 3-(Nonylsulfonamidomethyl)benzoic acid] | – | 150 to 151 °C | 28.5 µM | – | –
CCCCCS(=O)(=O)NCc1ccccc1C(=O)O [Compound 5e, 2-(Pentylsulfonamidomethyl)benzoic acid] | – | 100 °C | 61.9 ± 13.5 µM | – | –
CCCCCS(=O)(=O)Nc1cccc(CP(=O)(O)O)c1 [Compound 13c, 3-(Pentylsulfonamido)benzylphosphonic acid] | – | 127 to 128 °C | 45.3 ± 9 µM | – | –
CCCCCCCCCS(=O)(=O)Nc1cccc(CP(=O)(O)O)c1 [Compound 13d, 3-(Nonylsulfonamido)benzylphosphonic acid] | – | 149 to 150 °C | 23.7 µM | – | –
CCCCCS(=O)(=O)Nc1ccc(CP(=O)(O)O)cc1 [Compound 13e, 4-(Pentylsulfonamido)benzylphosphonic acid] | – | 198 to 200 °C | 47.7 ± 9.6 µM | – | –
O=C(O)c1ccccc1NS(=O)(=O)c1ccccc1 [Compound 15h, 2-(Phenylsulfonamido)benzoic acid] | – | 213 to 215 °C | – | – | IC50 [2, 5]: 40.5 ± 2.6 µM

Second part, led by results:

IC50 [2, 3] | melting point | IC50 [2, 4] | Compound | FAO SC 150 [1] | further results
23.1 µM | – | – | CCCCCCCCS(=O)(=O)Nc1cc(-c2ccccc2Cl)ccc1C(=O)O | FAS (IC50) Not Tested CPT I Stim Not Tested FAO SC 150 Neg SA/MH (MIC) ug/ml | –
63.4 µM | – | – | CCCCCCCCS(=O)(=O)Nc1ccc(-c2ccccc2O)cc1C(=O)O | FAS (IC50) Not Tested CPT I Stim Not Tested FAO SC 150 Neg SA/MH (MIC) ug/ml | –
31.2 µM | – | – | CCCCCCCCS(=O)(=O)Nc1ccc(-c2ccccc2F)cc1C(=O)O | FAS (IC50) Not Tested CPT I Stim Not Tested FAO SC 150 Neg SA/MH (MIC) ug/ml | –
– | 79 to 82 °C | 22.7 µM | CCCCCCCCCS(=O)(=O)NCc1ccccc1C(=O)O [Compound 5f, 2-(Nonylsulfonamidomethyl)benzoic acid] | – | –
– | 183 to 184 °C | – | CCCCCCCCCS(=O)(=O)Nc1cccc(C(=O)O)c1 [Compound 15d, 3-(Nonylsulfonamido)benzoic acid] | – | IC50 [2, 5]: 24.2 ± 2.9 µM
– | 120 to 122 °C | – | CCCCCCCCCCCCCCS(=O)(=O)Nc1ccccc1C(=O)O [Compound 24b, 2-(Tetradecylsulfonamido)benzoic acid] | – | IC50 [2, 6]: 6.9 ± 0.5 µM
– | 126 to 128 °C | – | CCCCCCCCCCCCCCCCS(=O)(=O)Nc1ccccc1C(=O)O [Compound 24c, 2-(Hexadecylsulfonamido)benzoic acid] | – | IC50 [2, 6]: 7.8 ± 0.8 µM
– | 142 to 144 °C | – | CCCCCCCCS(=O)(=O)Nc1ccc(O)cc1C(=O)O [Compound 24e, 5-Hydroxy-2-(octylsulfonamido)benzoic acid] | – | IC50 [2, 6]: 38.2 ± 4.1 µM
– | 141 to 143 °C | – | CCCCCCCCS(=O)(=O)Nc1ccc(F)cc1C(=O)O [Compound 24f, 5-Fluoro-2-(octylsulfonamido)benzoic acid] | – | IC50 [2, 6]: 29.5 ± 2.6 µM
